Measurements reported in patent US11066447B2, “Aureobasidium derivatives and methods of synthesis” (AureoGen Biosciences, Inc., priority 2016, dated 2021).
In brackets after ≈: the same amount, converted by molar mass. Like-named read-outs stand apart in the source and are kept apart here. Numbered stars: 1 amine (or outer) side, 2 acyl side, 3 side chain; on linkers, the order of the positions; unused ones are H or OH. Square brackets hold non-standard residues; d marks the D form. Peptide text beside a SMILES is read from it. X28 = CN([C@@H](Cc1cccc(-c2ccc(C(F)(F)F)cc2)c1)C(=O)[*:2])[*:1]; X31 = CN([C@@H](Cc1cccc(-c2cccc(C(F)(F)F)c2)c1)C(=O)[*:2])[*:1]; X33 = CN([C@@H](Cc1cccc(-c2ccc3ccccc3c2)c1)C(=O)[*:2])[*:1]; Hmp(2R,3S) = CC[C@H](C)[C@@H](O)C(=O)O; NMeVal(β-OH) = CN[C@H](C(=O)O)C(C)(C)O; NMeV = CN[C@H](C(=O)O)C(C)C

Legend:
[1] = system: A. fumigatus MMX 5280 ATCC MYA-3626; test: MIC/MEC assay (CLSI microdilution); type: cell-based, Aspergillus fumigatus; details: Aspergillus fumigatus, 48 h
Procedure: (§1) Aureobasidin and test compounds (i.e., AbA derivatives of the present invention) were received from Kalexsyn, Inc. (Kalamazoo, Mich.) as powder and were stored at 4° C. until the day of assay. […] amphotericin was obtained from Sigma Aldrich and stored under like conditions. […] Ethanol (95%) was used as a solvent and diluent for all AbA compounds. Amphotericin B was tested from 0.06-64 μg/mL. Amphotericin B (Sigma Aldrich; St. Louis, Mo.; Cat No. A9528-100MG, Lot No. 120M4087) was dissolved and diluted with dimethylsulfoxide (DMSO; Sigma Aldrich; St. Louis, Mo.; Cat No. 472301 Lot No. SHBD2072V).
(§2) The solvents were added to the test agents and the stock solutions stood for approximately 1 hr at room temperature prior to use to auto sterilize. Stock solutions were prepared at 40× the desired top concentration in the test plate.
(§3) All of the test isolates were originally received from either the American Type Culture Collection (ATCC), clinical labs, or directly from Aureogen Biosciences. Organisms stored by Micromyx were cultured on agar medium appropriate to each organism. Colonies were picked by swab from the isolation plates and put into suspension in appropriate broth containing cryoprotectant. The suspensions were aliquoted into cryogenic vials and maintained at −80° C.
(§4) Prior to testing, Candida isolates were streaked from the frozen vials on Sabouraud dextrose agar. The yeast isolates were incubated for 48 hours at 35° C. before use. The fungal isolates were obtained from enumerated fungal stocks previously prepared at Micromyx and stored in phosphate buffered saline at 4° C.
(§5) Test Media. The medium employed for the MIC assay was RPMI-1640 medium from HyClone Laboratories (Logan, Utah; Lot No. AYB60287A). The medium was prepared according to Clinical and Laboratory Standards Institute (CLSI) guidelines (1, 2), and modified to include 0.002% Tween-80. Candida parapsilosis ATCC 22019 (MMX 2323) and Aspergillus fumigatus ATCC MYA-3626 (MMX 5280) were also tested without Tween-80 to provide data for the quality control of amphotericin B in accordance with CLSI (3) and to assess the effect of Tween-80 on the activity of the test agents.
(§6) Test Procedure. The MIC assay method followed the procedure described by CLSI (1, 2) and employed automated liquid handlers to conduct serial dilutions and liquid transfers. Automated liquid handlers included the Multidrop 384 (Labsystems, Helsinki, Finland), Biomek 2000 and Biomek FX (Beckman Coulter, Fullerton Calif.). The wells in columns 2-12 in standard 96-well microdilution plates (Costar 3795) were filled with 150 μl of the appropriate diluent (95% EtOH for investigational compounds, 100% DMSO for amphotericin B). These assay plates would become the ‘mother plates’ from which the assay ‘daughter plates’ would be prepared. The drugs (300 μL at 40× the desired top concentration in the test plates) were dispensed into the appropriate well in Column 1 of the mother plates. The Biomek 2000 was used to make two-fold serial dilutions through Column 11 in the “mother plate”. The wells of Column 12 contained no drug and served as the organism growth control wells.
(§7) The daughter plates were loaded with 185 μL per well on the Multidrop 384 with RPMI plus 0.002% Tween-80 or RPMI containing no Tween-80 for the testing of the two QC isolates. The daughter plates were prepared on the Biomek FX instrument which transferred 5 μL of drug solution from each well of a mother plate to each corresponding well of each daughter plate in a single step.
(§8) A standardized inoculum of each organism was prepared per CLSI methods (1, 2). For the Candida isolates, colonies were picked from the streak plate and a suspension was prepared in RPMI to equal a 0.5 McFarland standard. This suspension was diluted 1:100 in RPMI resulting in a final concentration of approximately 0.5-2.5×10^3 CFU/mL. […]

[2] = system: A. fumigatus MMX 6781 ATCC MYA-4609; test: MIC/MEC assay (CLSI microdilution); type: cell-based; details: Aspergillus fumigatus; for MIC: 48 h, RPMI plus 0.002% Tween-80, read-out: MIC; for minimal effective concentration: RPMI plus 0.002% Tween-80, 48 hr
Procedure: as §1, §2, §3, §4, §5, §6, §7, §8

[3] = system: A. fumigatus MMX 6782 ATCC 13073; test: MIC/MEC assay (CLSI microdilution); type: cell-based; details: Aspergillus fumigatus, ATCC13073, 48 h; for minimal effective concentration: RPMI plus 0.002% Tween-80, read-out: MEC; for MIC: RPMI plus 0.002% Tween-80, read-out: MIC
Procedure: as §1, §2, §3, §4, §5, §6, §7, §8

A. flavus MMX 5948 = test: MIC/MEC assay (CLSI microdilution); type: cell-based; details: Aspergillus flavus, MMX5948, 48 h; for minimal effective concentration: RPMI plus 0.002% Tween-80; for MIC: RPMI plus 0.002% Tween-80, read-out: MIC
Procedure: as §1, §2, §3, §4, §5, §6, §7, §8

[4] = system: A. niger MMX 0624 ATCC 16888; test: MIC/MEC assay (CLSI microdilution); type: cell-based; details: for minimal effective concentration: RPMI plus 0.002% Tween-80, read-out: MEC
Procedure: as §1, §2, §3, §4, §5, §6, §7, §8

A. fumigatus MMX 5944 = test: MIC/MEC assay (CLSI microdilution); type: cell-based; details: Aspergillus fumigatus, MMX5944, 48 h; for minimal effective concentration: RPMI plus 0.002% Tween-80; for MIC: RPMI plus 0.002% Tween-80, read-out: MIC
Procedure: as §1, §2, §3, §4, §5, §6, §7, §8

[5] = system: C. parapsilosis MMX 2323 ATCC 22019; test: MIC assay (CLSI microdilution); type: cell-based, Candida parapsilosis; details: read-out: MIC
Procedure: as §1, §2, §3, §4, §5, §6, §7, §8

[6] = system: C. neoformans MMX 0634 ATCC 90112; test: MIC assay (CLSI microdilution); type: cell-based; details: Cryptococcus neoformans, ATCC90112, RPMI plus 0.002% Tween-80; read-out: MIC
Procedure: as §1, §2, §3, §4, §5, §6, §7, §8

[7] = system: C. albicans MMX 2000 ATCC 10231; test: MIC assay (CLSI microdilution); type: cell-based; details: Candida albicans, ATCC10231, RPMI plus 0.002% Tween-80; read-out: MIC
Procedure: as §1, §2, §3, §4, §5, §6, §7, §8

[8] = RPMI plus 0.002% Tween-80, read-out: MEC
[9] = RPMI plus 0.002% Tween-80, read-out: MIC
[10] = Without Tween-80, read-out: MEC
[11] = Without Tween-80, read-out: MIC
[12] = RPMI plus 0.002% Tween-80, 48 hr
[13] = ATCC22019, RPMI plus 0.002% Tween-80
[14] = Aspergillus niger, ATCC16888, 48 h
[15] = Aspergillus niger, ATCC16888, 48 h, RPMI plus 0.002% Tween-80, read-out: MIC

| Structure (SMILES) | minimal effective concentration [1, 8] [µg/mL] | MIC [1, 9] [µg/mL] | minimal effective concentration [1, 10] [µg/mL] | MIC [1, 11] [µg/mL] | MIC [2] [µg/mL] | minimal effective concentration [2] [µg/mL] | minimal effective concentration [3] [µg/mL] | MIC [3] [µg/mL] | minimal effective concentration (A. flavus MMX 5948) [µg/mL] | MIC (A. flavus MMX 5948) [µg/mL] | MEC [4, 12] | MIC [4, 12] | minimal effective concentration (A. fumigatus MMX 5944) [µg/mL] | MIC (A. fumigatus MMX 5944) [µg/mL] | MIC [5, 13] [µg/mL] | MIC ([5]; ATCC22019, Without Tween-80) [µg/mL] | MIC [6] [µg/mL] | MIC [7] [µg/mL] | minimal effective concentration [4, 14] [µg/mL] | MIC [4, 15] [µg/mL] |
| --- | --- | --- | --- | --- | --- | --- | --- | --- | --- | --- | --- | --- | --- | --- | --- | --- | --- | --- | --- | --- |
| CC[C@H](C)[C@@H]1NC(=O)[C@@H]2CCCN2C(=O)[C@H](Cc2cccc(-c3ccc(C(F)(F)F)cc3)c2)N(C)C(=O)[C@H](Cc2ccccc2)NC(=O)[C@H](C(C)C)N(C)C(=O)[C@@H]([C@@H](C)CC)OC(=O)[C@H](C(C)(C)O)N(C)C(=O)[C@H](CC(C)C)NC(=O)[C@H](C(C)C)N(C)C1=O [Compound 3] (cyclo(F[X28]PI[NMeV]L[NMeVal(β-OH)][Hmp(2R,3S)][NMeV])) | > 64 | > 64 | > 64 | > 64 | > 64 | > 64 | > 64 | > 64 | > 64 | > 64 | 1/1 μg/mL | 1/1 μg/mL | > 64 | > 64 | 0.5 | 2 (≈ 1.61 µM) | 0.12 | 0.12 |  |  |
| CC[C@H](C)[C@@H]1NC(=O)[C@@H]2CCCN2C(=O)[C@H](Cc2cccc(-c3cccc(C(F)(F)F)c3)c2)N(C)C(=O)[C@H](Cc2ccccc2)NC(=O)[C@H](C(C)C)N(C)C(=O)[C@@H]([C@@H](C)CC)OC(=O)[C@H](C(C)(C)O)N(C)C(=O)[C@H](CC(C)C)NC(=O)[C@H](C(C)C)N(C)C1=O [Compound 4] (cyclo(F[X31]PI[NMeV]L[NMeVal(β-OH)][Hmp(2R,3S)][NMeV])) | > 64 | > 64 | > 64 | > 64 | > 64 | > 64 | 1 | > 64 | > 64 | > 64 |  |  | 1 | > 64 | 0.5 | 2 (≈ 1.61 µM) | 0.25 | 0.12 | 0.5 | 0.5 |
| CC[C@H](C)[C@@H]1NC(=O)[C@@H]2CCCN2C(=O)[C@H](Cc2cccc(-c3ccc4ccccc4c3)c2)N(C)C(=O)[C@H](Cc2ccccc2)NC(=O)[C@H](C(C)C)N(C)C(=O)[C@@H]([C@@H](C)CC)OC(=O)[C@H](C(C)(C)O)N(C)C(=O)[C@H](CC(C)C)NC(=O)[C@H](C(C)C)N(C)C1=O [Compound 5] (cyclo(F[X33]PI[NMeV]L[NMeVal(β-OH)][Hmp(2R,3S)][NMeV])) | 0.5 | > 64 | 4 | > 64 | > 64 | 0.5 | 0.5 | > 64 | 0.5 | 1 |  |  | 0.5 | > 64 | 0.5 | 2 (≈ 1.63 µM) | 0.12 | 0.12 | 0.5 | 0.5 |
